In data set [1] the test system is Caco2 cells. Kind of data set: Heme content (fluorescence assay) in Caco2 cells. It counts as cell-based, human. As to conditions: FLVCR1a-silenced vs scramble shRNA Caco2 cells, 5 mM 5-ALA, time course. Here is the method:
(A) Heme content in Caco2 cells treated with 5 mM 5-ALA (black bars and white bars) or with 5 mM 5-ALA+0.5 mM SA (light grey outlined bars) for the indicated time points. […] Values are expressed as relative fluorescence intensity. Data represent mean±SEM, n=2. For statistical analyses, a two-way analysis of variance was used, followed by the Bonferroni correction for multiple group comparisons; **=p<0.01, ***=p<0.001. 5-ALA, 5-aminolevulinic acid; SA, succinylacetone. (B) Intracellular 5-ALA levels. […] Values are expressed as peak area/μg proteins. Data represent mean±SEM of n=4 wells pooled from two independent experiments. For statistical analyses, an unpaired Student's t-test was used; **=p<0.01. 5-ALA, 5-aminolevulinic acid. […] Values are expressed as peak area/μg proteins. […] Transcript abundance, normalized to beta-actin mRNA expression, is expressed as a fold increase over a calibrator sample. […] Band intensities were measured by densitometry and normalized to vinculin expression. […]
Intracellular heme concentration was measured using a fluorescence assay, as previously reported (Sinclair et al., 2001). […] Fluorescence (wavelength: excitation 405 nm-emission 660-720 nm) of the resultant protoporphyrin was assessed on a Glomax Multi Detection System (Promega Corporation, Madison WI, USA).
The endogenous protoporphyrin content (measured in parallel unheated samples in oxalic acid) was subtracted. […]

For data set [2], the system named is BTECs. Kind of data set: TCA cycle flux in BTECs. It counts as cell-based, human. As to conditions: FLVCR1a-silenced vs scramble shRNA BTECs. An excerpt: Results were expressed as nmol NAD*/min/mg mitochondrial protein for complex I, nmol reduced cytochrome c/min/mg mitochondrial protein for complexes II-III, nmol oxidized cytochrome c/min/mg mitochondrial protein for complex IV. Data represent mean±SEM, n=3. For statistical analyses, an unpaired Student's t-test was used; *=p<0.05, **=p<0.01, *=p<0.001. […] Results are expressed as nmol/mg mitochondrial proteins. Data represent mean±SEM, n=3. For statistical analyses, an unpaired Student's t-test was used; *=p<0.05. […] Results are expressed as pmol CO2/h/mg protein. Data represent mean±SEM, n=3. For statistical analyses, an unpaired Student's t-test was used; **=p<0.01. […] Results were expressed as nmol NAD*/min/mg mitochondrial protein for complex I, nmol reduced cytochrome c/min/mg mitochondrial protein for complexes II-III, nmol oxidized cytochrome c/min/mg mitochondrial protein for complex IV. […] Results are expressed as nmol/mg mitochondrial proteins. […] Results are expressed as pmol CO2/h/mg protein. […] (H) TCA cycle enzymes activities are reported in boxes and expressed as mU/mg mitochondrial proteins. […] Results were expressed as nmol NAD^+/min/mg mitochondrial protein for complex I, nmol reduced cytochrome c/min/mg mitochondrial protein for complexes II-III, nmol oxidized cytochrome c/min/mg mitochondrial protein for complex IV. […] Results are expressed as nmol/mg mitochondrial proteins. […]

Consider “FLVCR1a shRNA: shRNA specifically down-regulating FLVCR1a without targeting FLVCR1b; pLKO.1 lentiviral clone TRCN0000059599, antisense SEQ ID No.: 2 (antisense TTGCTAATGATGCTGTACTGG; sense CCAGTACAGCATCATTAGCAA)”, for which the “intracellular heme upon induction of heme biosynthesis” value in data set [1] was “faster and higher increase in the amount of intracellular heme than control cells”. Besides, the TCA cycle flux result in data set [2] was “increased TCA cycle flux”.

Values taken from patent US20240285670A1, “THERAPEUTIC TREATMENT OF TUMORS BY BLOCKING THE HEME SYNTHESIS-EXPORT AXIS” (Università degli Studi di Torino, priority 2021, published 2024).
